Measurements reported in paper PMC8312956, “T. cruzi DNA polymerase beta (Tcpolβ) is phosphorylated in vitro by CK1, CK2 and TcAUK1 leading to the potentiation of its DNA synthesis activity” (PLoS Neglected Tropical Diseases, 2021).

How the values were obtained:
TcAUK1 = target: T1, TcAUK1 (Trypanosoma cruzi, UniProt Q4DKE3); experiment: […]-ATP phosphorylation of Tcpolβ, SDS-PAGE autoradiography; over […] decrease at […]; type: biochemical
T1 construct: gene Tc00.1047053508817.80; recombinant, expressed in E. coli (pET15b), renatured and purified

TcCK2α = target: T2, TcCK2α (Trypanosoma cruzi, UniProt Q4E340); experiment: […]-ATP phosphorylation of pCK2β, SDS-PAGE autoradiography; type: biochemical
T2 construct: gene Tc00.1047053508741.320; recombinant TcCK2α in hybrid CK2 holoenzyme; with S. pombe CK2β (pCK2β)
T2 sequence (P40232 whole entry): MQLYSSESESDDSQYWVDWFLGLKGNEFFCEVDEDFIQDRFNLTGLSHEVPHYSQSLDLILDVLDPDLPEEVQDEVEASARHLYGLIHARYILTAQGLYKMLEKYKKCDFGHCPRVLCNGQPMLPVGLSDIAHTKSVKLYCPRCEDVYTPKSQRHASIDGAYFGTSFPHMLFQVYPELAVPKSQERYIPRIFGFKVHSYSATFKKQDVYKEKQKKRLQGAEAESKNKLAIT
T2 sequence (Q4E340 entry or part of it): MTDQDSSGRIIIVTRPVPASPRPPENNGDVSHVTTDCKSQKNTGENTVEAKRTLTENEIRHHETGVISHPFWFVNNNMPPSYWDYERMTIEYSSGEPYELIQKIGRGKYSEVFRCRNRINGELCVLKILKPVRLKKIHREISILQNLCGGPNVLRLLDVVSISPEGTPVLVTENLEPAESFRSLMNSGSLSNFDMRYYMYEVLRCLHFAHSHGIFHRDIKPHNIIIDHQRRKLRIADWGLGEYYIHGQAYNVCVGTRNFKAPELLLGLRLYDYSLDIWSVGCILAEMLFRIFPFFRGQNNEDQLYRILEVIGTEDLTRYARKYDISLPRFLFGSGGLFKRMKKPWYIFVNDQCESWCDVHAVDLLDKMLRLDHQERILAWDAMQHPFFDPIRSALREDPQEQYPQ

T1 sequence (Q4DKE3 entry or part of it): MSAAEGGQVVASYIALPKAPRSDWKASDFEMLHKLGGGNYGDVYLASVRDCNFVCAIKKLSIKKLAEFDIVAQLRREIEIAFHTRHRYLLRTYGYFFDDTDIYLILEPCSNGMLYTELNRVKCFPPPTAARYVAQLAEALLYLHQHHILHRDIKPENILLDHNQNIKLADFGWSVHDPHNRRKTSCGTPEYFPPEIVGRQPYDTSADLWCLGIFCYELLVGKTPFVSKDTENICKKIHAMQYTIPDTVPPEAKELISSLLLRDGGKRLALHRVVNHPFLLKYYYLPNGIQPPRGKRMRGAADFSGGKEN

In the case of `O=C(Nc1cccc(Cl)c1)Nc1ncc(CCNc2ncnc3ccsc23)s1` [SNS314], the “32P-ATP phosphorylation of Tcpolβ, SDS-PAGE autoradiography; over 60% decrease a” value (TcAUK1) is reported as ~ 48 nM.

In the case of `Brc1c(Br)c(Br)c2[nH]nnc2c1Br` [TBB, 4,5,6,7-tetrabromobenzotriazole], the IC50 (TcCK2α) is reported as 500 to 1000 nM.
